From patent US20220259172A1, “CHEMICAL INHIBITORS OF ID PROTEINS FOR THE TREATMENT OF CANCER AND OTHER DISEASES” (Universität Heidelberg, priority 2019, published 2022)
“Also recorded” adds a separate entry of the source.

Key:
Id1 [1] = experiment: Id1 expression in HUVECs, Western blot; assay type: cell-based, Human; settings: proliferating HUVECs; 24 hours (FIG. 10A)
Method: (§1) Human umbilical vein endothelial cells (HUVECs) and lymphatic endothelial cells (LECs) were cultivated in EBM™-2 Endothelial Cell Growth Basal Medium supplemented with EGM™-2 MV Microvascular Endothelial Cell Growth Medium-2 SingleQuots™ Kit (both Lonza, catalogue numbers CC-3156 and CC4176, respectively), hereafter referred to as endothelial cell growth medium. HUVECs and LECs were cultivated in the presence of the indicated concentrations of X6632, or with DMSO as a solvent control. After 24 hours, cells were harvested. Lysates were western blotted and probed with antibodies against Id1 and Id3. Western blots probed with vinculin antibodies served as loading controls.
(§2) Western blot analysis was performed using standard methods. The following antibodies were used for protein detection: Id1 (195-14, CalBioreagents), Id3 (17-3, CalBioreagents), β-actin (AC-15, Sigma Aldrich), Vinculin (VIN-11-5, Sigma Aldrich). Protein bands were detected using HRP conjugated secondary antibodies (P0447, P0448, Agilent Technologies) and enhanced chemiluminescence (32106, Thermo Fisher Scientific).
(§3) The effect of X6632 on Id1 and Id3 expression in cultivated proliferating human umbilical vein endothelial cells (HUVECs) was investigated. […] LDN-193189, an antagonist of BMP receptor isotypes ALK2 and ALK3, served as a positive control reference for inhibition of Id1 and Id3 expression.

Id3 [2] = experiment: Id3 expression in HUVECs, Western blot; assay type: cell-based, Human; settings: proliferating HUVECs; 24 hours (FIG. 10A)
Method: as §1, §2, §3

Id3 [3] = experiment: Compound screen: BMP4-induced Id3 expression, Western blot; assay type: cell-based, murine; settings: for Inhibitory effect on Id3 protein expression: B16-F10 and Ret cells, BMP4 10 ng/ml and compound simultaneously, 24 h, rated relative to CBD
Method: (§4) To screen compounds with an inhibitory effect on Id1 and Id3 expression, cells were simultaneously stimulated with BMP4 (10 ng/ml, 315-27, Peprotech) and substances at the indicated concentrations for 24 h. DMSO served as a solvent control. Effects on Id1 and Id3 expression levels were analysed by Western blotting.
as §2
(§5) B16-F10 and Ret melanoma cells were treated with BMP4 to induce Id1 and Id3 expression, and simultaneously treated with each of the compounds individually for a 24 h period.

glioma = glioma model; cited from earlier work
[4] = Toxicity observed in treated tumor-bearing mice; assay type: in vivo; settings: daily intraperitoneal injections; for Toxicity in the treated mice: 14 days
Method: (§6) Cells were harvested using trypsin/EDTA and washed in PBS. The indicated numbers of living melanoma cells were subcutaneously injected into the flank of syngeneic mice in 100 μl PBS. For co-injection experiments, the indicated number of living cells was resuspended in 100 μl Matrigel HC (10 mg/ml, #354262, Corning Inc.), and subcutaneously injected into the flank. Tumor volume was calculated using the formula 4/3π (d1/2×d2/2×d3/2), where d1−d3 represents the diameter of the tumor in three dimensions. […] All animal experiments were approved by the local authorities, and performed according to the German legal requirements. Tumor initiating cell (TIC) frequency and p-values were calculated using ELDA software.
In contrast, daily intraperitoneal injections of CBD led to the death of two mice in the experiment with Ret cell-derived tumors (cause of death unknown).

Id1 [5] = experiment: Compound screen: BMP4-induced Id1 expression, Western blot; assay type: cell-based, murine; settings: for Inhibitory effect on Id1 protein expression: B16-F10 and Ret cells, BMP4 10 ng/ml and compound simultaneously, 24 h, rated relative to CBD
Method: as §4, §2, §5

[6] = tested on: mouse embryonic fibroblasts (MEFs); experiment: Proliferation/cytotoxicity in mouse embryonic fibroblasts, 2D culture; assay type: cell-based
B16-F10 and Ret cells [7] = experiment: Proliferation of melanoma cells in 2D culture; assay type: cell-based, murine
B16-F10 and Ret cells [8] = experiment: 3D Matrigel assay; assay type: cell-based, murine
Method: X8166 inhibits melanoma cell growth in 3D Matrigel. B16-F10 (A) or Ret (B) control or CRISPR/Cas9 Id1/Id3 cells were seeded in 3D Matrigel (10 mg/ml) and grown for six days before analysis. B16-F10 or Ret cells were treated daily with DMSO or X8166 (7.5 μM). The number of colonies at six positions of each well of a 48-well plate were counted in each z-level (5-10 z-levels were imaged per position).
Cells (2×10^3) were mixed with Matrigel to obtain 150 μl of a cell/Matrigel (10 mg/ml, #354262, Corning Inc.) solution, which was seeded into a well of a 48-well plate. The gel was allowed to solidify at 37° C. for 30 min and was subsequently overlaid with 500 μl complete growth medium. After six days of culture, images were captured using a Leica DMI6000 B microscope at six different x/y positions in every well, and a minimum of five horizontal layers (z levels) at each position, in order to get every cell in focus for image analysis. Image analysis was performed using Fiji software as follows: First, images were transformed into 8-bit files (pixel values from 0 (black) to 255 (white)). The scale was set to distance=0, known=0, pixel=1, and unit=pixel global. Outlines of each colony in focus in every image were detected using the integrated semi-automatic magic wand tool. Once outlines were matching the morphology of the colony were obtained, the colony was filled white (pixel value 255) using the fill function. Thresholding of pixel values (threshold=255) allowed black (background) and white (colonies) images of the filled colonies to be obtained. The “Analyze particles” function was applied to measure the area and perimeter of colonies with a minimum pixel size of 1500. An invasive index was calculated as follows: Invasive index=(perimeter)^2/area, resulting in a unitless measure of invasiveness.

B16-F10 melanoma cells = experiment: Tumor growth and initiation in vivo, B16-F10; parameters: species or system mice; settings: for Number of animals with tumors: B16-F10 cells, 8 mice per group, assessed over 90 days
Text: (§7) B16-F10 (A) or Ret (B) cells were co-injected with Matrigel into syngeneic mice. […] Numbers indicate the number of animals with a tumor in each group. Bar graphs show the mean tumor volume in each group at the day when the first animal had reached the legal tumor size limit. Kaplan-Meier curves show the percentage of tumor-free animals in percent as a measure for tumor initiation.
as §6
(§8) To investigate the anti-tumor properties of the selected Id1/Id3-inhibiting compounds, groups of experimental mice (8 per group) were injected subcutaneously with B16-F10 or Ret melanoma cells. […] Melanoma initiation and growth was assessed over a period of 90 days.

CB2 = CB2 (Homo sapiens, UniProt P34972); settings: cited from earlier work
Id1 [9] = settings: cited from earlier work
mammary carcinoma = settings: orthotropic mammary carcinoma model; cited from earlier work
Ret melanoma cells = experiment: Tumor growth and initiation in vivo, Ret; parameters: species or system mice
Text: as §7, §6, §8

[10] = compound 3.3 μM, BMP4, 24 h (FIG. 9B)

CB2, sequence (P34972 whole entry, species assumed): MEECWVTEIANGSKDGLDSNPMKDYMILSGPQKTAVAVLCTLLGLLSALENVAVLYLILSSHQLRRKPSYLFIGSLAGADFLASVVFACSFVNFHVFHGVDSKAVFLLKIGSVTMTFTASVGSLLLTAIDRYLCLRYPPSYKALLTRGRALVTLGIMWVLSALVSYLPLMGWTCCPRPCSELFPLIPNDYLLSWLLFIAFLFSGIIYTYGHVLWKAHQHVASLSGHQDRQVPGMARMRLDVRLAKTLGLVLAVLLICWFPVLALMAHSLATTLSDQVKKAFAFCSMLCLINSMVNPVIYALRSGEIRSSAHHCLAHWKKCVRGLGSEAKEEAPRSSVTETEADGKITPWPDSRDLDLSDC

**Q.** For `Cc1cc(=O)oc2cc(O)ccc12` [4-methylumbelliferone, reference compound], which Id1 protein expression (Id1 [1]) is on record?
**A.** did not reduce

**Q.** What about the Id3 protein expression (Id3 [2]) of the same compound?
**A.** did not reduce

**Q.** Which results are given for `C=C(C)[C@@H]1CCC(C)=C[C@H]1c1c(O)cc(CCCCC)cc1O` [CBD, Cannabidiol, reference compound]?
**A.** Inhibition of Id3 expression (Id3 [3]; [10]): does not inhibit; Id1 expression (glioma): inhibited; Invasion in vivo (glioma): decreased invasion; Survival of tumor-bearing mice (glioma): prolonged survival; Toxicity in the treated mice [4]: toxicity-related injury to their intestinal organs; Death of mice ([4]; experiment with Ret cell-derived tumors, cause of death unknown): two; Inhibition of Id1 expression (Id1 [5]; [10]): does not inhibit; Proliferation / cytotoxicity, non-transformed MEFs [6]: strongly inhibited; also recorded: more toxic; Proliferation / cytotoxicity, melanoma cells (B16-F10 and Ret cells [7]): strongly inhibited; also recorded: more cytotoxic; 3D assays could not be performed with daily application, reason (B16-F10 and Ret cells [8]; daily application in 3D Matrigel): cytotoxicity; Number of animals with tumors (B16-F10 melanoma cells): seven out of eight; Affinity for CB2 (CB2): low affinity; Id1 expression at the transcriptional level (Id1 [9]): inhibits; Levels of Id1 in tumor tissue (mammary carcinoma): reduced levels; Primary tumor growth and lung metastasis (mammary carcinoma): inhibition

**Q.** Which “Inhibitory effect on Id3 protein expression” value (Id3 [3]) does the source give for `Cc1ccc(CN(C(=O)c2ccccc2)c2nn(Cc3ccc(C)cc3)c3c(C(F)(F)F)cccc23)cc1` [X8766] here?
**A.** strongest inhibitory activities

**Q.** What about the “Inhibitory effect on Id1 protein expression” value (Id1 [5]) of the same compound?
**A.** strongest inhibitory activities

**Q.** Which “Inhibitory effect on Id3 protein expression” value (Id3 [3]) does the source give for `CCCCn1cc(C(=O)Cc2ccccc2)c2ccccc21` [X8166] here?
**A.** strongest inhibitory activities

**Q.** What about the “Toxicity in the treated mice” value [4] of the same compound?
**A.** no evidence for toxicity was observed; also recorded: well tolerated

**Q.** And the “Inhibitory effect on Id1 protein expression” value (Id1 [5])?
**A.** strongest inhibitory activities

**Q.** And the “Proliferation / cytotoxicity, non-transformed MEFs” value [6]?
**A.** modest inhibitory effect; also recorded: well tolerated; also recorded: superior; also recorded: less cytotoxic

**Q.** What about the “Proliferation / cytotoxicity, melanoma cells” value (B16-F10 and Ret cells [7]) of the same compound?
**A.** modest inhibitory effect; also recorded: less cytotoxic

**Q.** What about the “Growth of melanoma cells in 3D Matrigel” value (B16-F10 and Ret cells [8]; Matrigel 10 mg/ml, six days, treated daily, X8166 7.5 μM) of the same compound?
**A.** significantly impaired; also recorded: inhibits

**Q.** What about the “Melanoma growth and initiation” value (Ret melanoma cells; Ret cells co-injected with Matrigel, syngeneic mice, daily i.p. first 14 days, compared to DMSO) of the same compound?
**A.** significantly inhibit; also recorded: potent inhibitors

**Q.** What about the “Number of mice that did not develop any tumors” value (Ret melanoma cells; Ret cells, 8 mice per group, assessed over 90 days) of the same compound?
**A.** 2 mice

**Q.** What about the “Tumor growth and initiation compared to CBD” value (Ret melanoma cells; Ret experiment, daily i.p. first 14 days) of the same compound?
**A.** significantly more

**Q.** And the “Melanoma growth and initiation” value (B16-F10 melanoma cells; B16-F10 cells co-injected with Matrigel, syngeneic mice, daily i.p. first 14 days, compared to DMSO)?
**A.** significantly inhibit; also recorded: potent inhibitors

**Q.** And the “Number of animals with tumors” value (B16-F10 melanoma cells)?
**A.** none

**Q.** And the “Tumor growth and initiation compared to CBD” value (B16-F10 melanoma cells; B16-F10 experiment, daily i.p. first 14 days)?
**A.** significantly more

**Q.** Which “Inhibitory effect on Id3 protein expression” value (Id3 [3]) does the source give for `O=C(Nc1nn(Cc2ccc(C(F)(F)F)cc2)c2c(C(F)(F)F)cccc12)c1ccccc1` [X8035] here?
**A.** strongest inhibitory activities

**Q.** And the “Inhibitory effect on Id1 protein expression” value (Id1 [5])?
**A.** strongest inhibitory activities

**Q.** Which results are given for `CCCCCCC(C)(C)c1cc(O)c2cc(Cc3ccccc3O)c(=O)oc2c1` [X106]?
**A.** Inhibitory effect on Id3 protein expression (Id3 [3]): strongest inhibitory activities; Inhibitory effect on Id1 protein expression (Id1 [5]): strongest inhibitory activities

**Q.** What does the source list for `Cc1ccc(Cn2cc(CC(=O)Nc3ccc(C(F)(F)F)cc3)c3ccccc32)cc1` [X8706]?
**A.** Inhibitory effect on Id3 protein expression (Id3 [3]): strongest inhibitory activities; Inhibitory effect on Id1 protein expression (Id1 [5]): strongest inhibitory activities

**Q.** Which results are given for `CCCCCCCC(C)(C)c1cc(O)c2cc(Cc3ccccc3O)c(=O)oc2c1` [X81]?
**A.** Inhibitory effect on Id3 protein expression (Id3 [3]): strongest inhibitory activities; Inhibitory effect on Id1 protein expression (Id1 [5]): strongest inhibitory activities
